Reference: patent US12319752B2, “Heparin-binding cationic peptide self-assembling peptide amphiphiles useful against drug-resistant bacteria” (priority 2016, dated 2025)
Converted amounts (≈) assume the structure as drawn. Residues, ends and D or L forms follow the SMILES beside them. *: point of attachment. Palmitoyl = CCCCCCCCCCCCCCCC(=O)*

How the values were obtained:
[1] = test system: LPS (from Escherichia coli O111:B4); test: LPS binding, BODIPY TR cadaverine (BC) probe displacement assay; conditions: 20 μM to 100 μM peptide, 100 μg/mL LPS
Protocol: The binding of each peptide at various concentrations to LPS was determined by the capability of displacing the BC probes bound with LPS. The fluorescent BC probe was used as a probe to determine the level of peptide bound with LPS. BC probe binds to native LPS and particularly target the lipid A portion. The fluorescent intensity of BC probe decreases as it binds to LPS. […] For instance, the LPS binding factor of samples containing 60 μM of CVK-PA was as double as the 40 μM sample.
The LPS binding affinity of peptide was examined with the BODIPY TR cadaverine (BC) fluorescent probe displacement assay as previously described. Stock solution of each peptide was diluted to predetermined concentrations with 10 mM HEPES buffer (pH=7.5, Thermo Fisher Scientific, Waltham, MA, USA). […] Followed by incubation for 15 minutes in room temperature, the fluorescent intensity was measured using a spectrophotometer at an excitation wavelength of 580 nm and an emission wavelength of 620 nm. Finally, the LPS binding factor of each sample was calculated using the equation: […]
When peptides bind to LPS and displace the BC probe, fluorescence intensity of the probe is increased. LPS binding affinity of each peptide was then analyzed by the fluorescent intensity of the displaced BC probe. […]

MDR E. coli [2] = test: Bacterial growth inhibition (growth curves, OD562, 20 h); assay type: cell-based, multidrug-resistant E. coli (MDR E. coli, ATCC #BAA-2471)
Protocol: Gram-positive (S. aureus and MRSA) and Gram-negative (E. coli and MDR E. coli) bacteria were incubated with peptide concentrations ranging from 20 to 100 μM, and time-lapsed bacterial growth was monitored for 20 hours by determining the optical density at 562 nm (O.D. 562 nm). […] At the highest concentration tested (100 μM), the time to exponential growth phase of S. aurues was delayed by about 18 h (FIG. 5B), and was prolonged by almost 13 h for MRSA (FIG. 5A), while bacteria incubated without ACA-PA entered the exponential growth phase within 4 h. Gram-positive bacteria were also susceptible to the ACA-PA even below their CMC.
The MIC values of ACA-PA towards drug-resistant bacteria were determined after 24 h of incubation (Table 2).
(§1) This assay was performed to investigate the inhibitory effects of each peptide against Gram-positive Staphylococcus aureus (S. aureus, ATCC #25923) and methicillin-resistant S. aureus (MRSA, ATCC #43300), as well as Gram-negative Escherichia coli (E. coli, ATCC #25922), and multidrug-resistant E. coli (MDR E. coli, ATCC #BAA-2471). In all experiments, solutions of each peptide at the concentrations from 20 μM to 100 μM in 3% Tryptic Soy Broth (TSB) media were freshly prepared. A single colony of bacteria was isolated from a stock agar plate and cultured overnight in 4 mL of 3% TSB on a shaking incubator set at 200 rpm and 37° C. The bacteria culture was adjusted to an optical density at 562 nm (OD562) to about 0.52 (10^9 cells/mL), and the resulting bacteria suspension was subsequently diluted to about 10^6 colony forming units (CFU) per mL in each sample. The control samples were bacteria incubated in TSB media without peptides. The bacteria were incubated inside a spectrophotometer (Spectra-Max Paradigm, Molecular Devices, Sunnyvale, CA) at 37° C. under static conditions for 20 h, and the bacterial growth curves were measured in terms of turbidity at OD562 every 2 minutes. The normalized OD562 values of samples were calculated by subtracting the […].

MDR E. coli [3] = assay type: cell-based, multidrug-resistant E. coli (MDR E. coli, ATCC #BAA-2471); conditions: 24 h
Protocol: as §1, with “The bacteria culture was adjusted to an optical density at 562 nm (OD562) to about 0.52 (10^9 cells/mL), and the resulting bacteria suspension was subsequently diluted to about 10^6 colony forming units (CFU) per mL in each sample. The control samples were bacteria incubated in TSB media without peptides.” left out
The minimum inhibitory concentration (MIC) of ACA-PA was tested against drug-resistant bacteria and compared with conventional penicillin-streptomycin (10,000 U/mL, Thermo Fisher Scientific, Waltham, MA, USA) as well. […] The OD562 was measured at the end of treatment. […]

MRSA = test: Live/dead bacterial viability assay; assay type: cell-based, methicillin-resistant S. aureus (MRSA); conditions: 4 h
From the text: To further investigate bacteria viability after treatment with ACA-PA, the live/dead assay was used to confirm the antibacterial actions of ACA-PA. Dead bacteria with disrupted membrane were stained a first color, whereas live bacteria were stained with a second color fluorescence. A large amount of robust MRSA bacteria in the untreated control sample appeared a second color and in spherical shapes (FIG. 10A). […] This antibacterial activity was dependent on the concentration of PA, yet was not determined by peptide self-assembly. Nonetheless, Gram-negative MDR E. coli responded to the treatment of ACA-PA differently from Gram-positive MRSA.
The live/dead bacterial viability assay was conducted to further assess the bactericidal efficacy of ACA-PA using the LIVE/DEAD BacLight Bacterial Viability Kits (Kits 71007, Molecular Probes, Eugene, OR, USA). MRSA and MDR E. coli bacteria (100 μl, 10^6 CFU/mL) were incubated with 80 μM and 40 μM of peptide in 3% TSB media at 37° C. for 4 h on a 96-well plate, and the control samples of bacteria were incubated in 3% TSB media only. […] The live bacteria stained fluorescent a second color (SYTO9 nucleic acid stain), whereas the dead bacteria with disrupted membranes stained fluorescent a first color (propidium iodide, PI).

## CCCCCCCCCCCCCCCC(=O)N[C@H](C(=O)N[C@H](C(=O)N[C@H](C(=O)N[C@H](C(=O)N[C@@H](CCCCN)C(=O)N[C@@H](CCCCN)C(=O)N[C@@H](CCCCN)C(=O)N[C@@H](CCCCN)C(=O)NCC(=O)N[C@@H](C)C(=O)N[C@@H](CCCCN)C(=O)N[C@@H](CCCCN)C(=O)N[C@@H](C)C(=O)N[C@@H](CCCNC(=N)N)C(=O)N[C@@H](C)C(=O)N[C@@H](C)C(=O)N[C@@H](CCCCN)C(=O)N[C@@H](CCCCN)C(=O)N[C@@H](C)C(=O)N[C@@H](CCCNC(=N)N)C(=O)N[C@@H](C)C(=O)O)C(C)C)C(C)C)C(C)C)C(C)C [ACA-PA, C16-V4K4G(AKKARA)2 (SEQ ID NO: 7)] (Palmitoyl-VVVVKKKKGAKKARAAKKARA-OH; N-terminus and C-terminus assumed)
[1]
  LPS binding factor: highest LPS binding capability among the peptides investigated
MDR E. coli [2]; 20 to 100 μM, 20 h
  bacterial growth inhibition: remarkably inhibited the proliferation
MDR E. coli [2]; concentrations higher than the CMC (60 μM to 100 μM)
  bacterial proliferation: significantly suppressed
MDR E. coli [2]; concentrations lower than the CMC
  bacterial growth inhibition: did not significantly inhibit bacterial growth
MDR E. coli [2]; over 80 μM
  bacterial growth: no bacteria growth was observed
MDR E. coli [3]
  Minimum inhibitory concentration (MIC): 400 µg/mL (≈ 162 µM)
MRSA; 40 μM
  bacterial viability (live/dead staining): markedly reduced MRSA viability
MRSA; 80 μM
  bacterial viability (live/dead staining): coverage of dead bacteria increased with low density of live bacteria
